Data taken from patent US6737383B1, “Herbicidal oxadiazolidines” (priority 1999, dated 2004).

Columns and labels:
[1] = tested on: bedstraw; experiment: Test B pre/postemergence bedstraw; assay type: in vivo, Galium aparine
Method in brief: (§1)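 Herbicidal effect was estimated by eye on a ten-point control scale after plants spent twelve to sixteen days in a greenhouse following soil or foliar treatment. Foliar sprays targeted plants at one to four leaves; all doses were formulated in a non-phytotoxic solvent with surfactant.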

[2] = tested on: blackgrass; experiment: Test B pre/postemergence blackgrass; assay type: in vivo, Alopecurus myosuroides
Method in brief: as §1

[3] = tested on: surinam grass; experiment: Test B pre/postemergence surinam grass; assay type: in vivo, Brachiaria decumbens
Method in brief: as §1

[4] = tested on: cocklebur; experiment: Test B pre/postemergence cocklebur; assay type: in vivo, Xanthium strumarium
Method in brief: as §1

[5] = tested on: corn; experiment: Test B pre/postemergence corn; assay type: in vivo, Zea mays
Method in brief: as §1

[6] = tested on: giant foxtail; experiment: Test B pre/postemergence giant foxtail; assay type: in vivo, Setaria faberii
Method in brief: as §1

[7] = tested on: morningglory; experiment: Test B pre/postemergence morningglory; assay type: in vivo, Ipomoea hederacea
Method in brief: as §1

[8] = tested on: pigweed; experiment: Test B pre/postemergence pigweed; assay type: in vivo, Amaranthus retroflexus
Method in brief: as §1

[9] = tested on: rape; experiment: Test B pre/postemergence rape; assay type: in vivo, Brassica napus
Method in brief: as §1

[10] = tested on: sugar beet; experiment: Test B pre/postemergence sugar beet; assay type: in vivo, Beta vulgaris
Method in brief: as §1

[11] = tested on: velvetleaf; experiment: Test B pre/postemergence velvetleaf; assay type: in vivo, Abutilon theophrasti
Method in brief: as §1

[12] = tested on: purple nutsedge; experiment: Test B pre/postemergence purple nutsedge; assay type: in vivo, Cyperus rotundus
Method in brief: as §1

[13] = tested on: rice; experiment: Test B flood test rice; assay type: in vivo, Oryza sativa
Method in brief: (§2)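 Flood test on plants grown to the 2-leaf stage; treated plants kept in greenhouse twelve to sixteen days, then visually rated against controls on a 0 (no effect) to 10 (complete control) scale.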

[14] = tested on: duck salad; experiment: Test B flood test duck salad; assay type: in vivo, Heteranthera limosa
Method in brief: as §2

[15] = tested on: bamyardgrass; experiment: Test B flood test barnyardgrass; assay type: in vivo, Echinochloa crus-galli
Method in brief: as §2

[16] = Preemergence, Rate 62 g/ha, scale of 0 to 10 where 0 is no effect and 10 is complete control
[17] = Preemergence, Rate 250 g/ha, scale of 0 to 10 where 0 is no effect and 10 is complete control
[18] = Preemergence, Rate 500 g/ha, scale of 0 to 10 where 0 is no effect and 10 is complete control
[19] = Rate 62 g/ha, Postemergence, scale of 0 to 10 where 0 is no effect and 10 is complete control
[20] = Rate 125 g/ha, Postemergence, scale 0 to 10
[21] = Rate 125 g/ha, Preemergence, scale of 0 to 10 where 0 is no effect and 10 is complete control
[22] = Rate 500 g/ha, Postemergence, scale 0 to 10, 0 no effect, 10 complete control
[23] = Rate 62 g/ha, headed Pre-emergence (flood test species), scale 0 to 10 (0 no effect, 10 complete control)
[24] = Rate 125 g/ha, Pre-emergence, flood test species, scale 0 to 10 where 0 is no effect and 10 is complete control
[25] = Rate 250 g/ha, Pre-emergence, flood-test species, scale 0 to 10, 0 is no effect, 10 is complete control
[26] = Rate 500 g/ha, Pre-emergence, flood test species, scale 0 to 10 (0 no effect, 10 complete control)

## Cc1nc(C)c(Cn2c(=O)on(C(=O)N(c3ccc(F)cc3)C(C)C)c2=O)s1 [Compound 232]
[1]; [16]
  Bedstraw plant response rating: 0
[1]; [17]
  Bedstraw plant response rating: 0
[1]; [18]
  Plant response rating, Bedstraw: 0
[1]; [19]
  Bedstraw plant response rating: 0
[1]; [20]
  Bedstraw plant response rating: 0
[1]; [21]
  Bedstraw plant response rating: 0
[1]; Rate 250 g/ha, Postemergence
  Plant response rating (0 to 10; 0 is no effect, 10 is complete control), Bedstraw: 2
[1]; [22]
  Bedstraw plant response rating: 2
[2]; [16]
  Blackgrass plant response rating: 2
[2]; [17]
  Blackgrass plant response rating: 8
[2]; [18]
  Plant response rating, Blackgrass: 8
[2]; [19]
  Blackgrass plant response rating: 0
[2]; [20]
  Blackgrass plant response rating: 2
[2]; [21]
  Blackgrass plant response rating: 6
[2]; Rate 250 g/ha, Postemergence
  Plant response rating (0 to 10; 0 is no effect, 10 is complete control), Blackgrass: 6
[2]; [22]
  Blackgrass plant response rating: 7
[3]; [16]
  B. signalgrass plant response rating: 0
[3]; Preemergence, Rate 250 g/ha, scale 0 to 10, 0 is no effect, 10 is complete control
  B. signalgrass plant response rating: 1
[3]; [18]
  Plant response rating, B. signalgrass: 5
[3]; [19]
  B. signalgrass plant response rating: 0
[3]; Rate 125 g/ha, Postemergence, scale 0 (no effect) to 10 (complete control)
  B. signalgrass plant response rating: 0
[3]; [21]
  B. signalgrass plant response rating: 0
[3]; Rate 250 g/ha, Postemergence
  Plant response rating (0 to 10; 0 is no effect, 10 is complete control), B. signalgrass: 1
[3]; [22]
  B. signalgrass plant response rating: 8
[4]; [16]
  Cocklebur plant response rating: 0
[4]; [17]
  Cocklebur plant response rating: 0
[4]; [18]
  Plant response rating, Cocklebur: 0
[4]; [19]
  Cocklebur plant response rating: 0
[4]; [20]
  Cocklebur plant response rating: 2
[4]; [21]
  Cocklebur plant response rating: 0
[4]; Rate 250 g/ha, Postemergence
  Plant response rating (0 to 10; 0 is no effect, 10 is complete control), Cocklebur: 2
[4]; [22]
  Cocklebur plant response rating: 4
[5]; [16]
  Corn plant response rating: 0
[5]; [17]
  Corn plant response rating: 0
[5]; [18]
  Plant response rating, Corn: 0
[5]; [19]
  Corn plant response rating: 0
[5]; [20]
  Corn plant response rating: 0
[5]; [21]
  Corn plant response rating: 0
[5]; Rate 250 g/ha, Postemergence
  Plant response rating (0 to 10; 0 is no effect, 10 is complete control), Corn: 0
[5]; [22]
  Corn plant response rating: 0
[6]; [16]
  Giant foxtail plant response rating: 6
[6]; [17]
  Giant foxtail plant response rating: 8
[6]; [18]
  Plant response rating, Giant foxtail: 9
[6]; [19]
  Giant foxtail plant response rating: 0
[6]; [20]
  Giant foxtail plant response rating: 0
[6]; [21]
  Giant foxtail plant response rating: 8
[6]; Rate 250 g/ha, Postemergence
  Plant response rating (0 to 10; 0 is no effect, 10 is complete control), Giant foxtail: 2
[6]; [22]
  Giant foxtail plant response rating: 3
[7]; [16]
  Morningglory plant response rating: 0
[7]; [17]
  Morningglory plant response rating: 0
[7]; [18]
  Plant response rating, Morningglory: 0
[7]; [19]
  Morningglory plant response rating: 3
[7]; [20]
  Morningglory plant response rating: 8
[7]; [21]
  Morningglory plant response rating: 0
[7]; Rate 250 g/ha, Postemergence
  Plant response rating (0 to 10; 0 is no effect, 10 is complete control), Morningglory: 8
[7]; [22]
  Morningglory plant response rating: 8
[8]; [16]
  Redroot pigweed plant response rating: 0
[8]; [17]
  Redroot pigweed plant response rating: 5
[8]; [18]
  Plant response rating, Redroot pigweed: 7
[8]; [19]
  Redroot pigweed plant response rating: 2
[8]; [20]
  Redroot pigweed plant response rating: 3
[8]; [21]
  Redroot pigweed plant response rating: 0
[8]; Rate 250 g/ha, Postemergence
  Plant response rating (0 to 10; 0 is no effect, 10 is complete control), Redroot pigweed: 6
[8]; [22]
  Redroot pigweed plant response rating: 4
[9]; [16]
  Rape plant response rating: 0
[9]; [17]
  Rape plant response rating: 0
[9]; [18]
  Plant response rating, Rape: 0
[9]; [19]
  Rape plant response rating: 0
[9]; [20]
  Rape plant response rating: 2
[9]; [21]
  Rape plant response rating: 0
[9]; Rate 250 g/ha, Postemergence
  Plant response rating (0 to 10; 0 is no effect, 10 is complete control), Rape: 2
[9]; [22]
  Rape plant response rating: 2
[10]; [16]
  Sugarbeets plant response rating: 0
[10]; [17]
  Sugarbeets plant response rating: 4
[10]; [18]
  Plant response rating, Sugarbeets: 4
[10]; [19]
  Sugarbeets plant response rating: 0
[10]; [20]
  Sugarbeets plant response rating: 2
[10]; [21]
  Sugarbeets plant response rating: 0
[10]; Rate 250 g/ha, Postemergence
  Plant response rating (0 to 10; 0 is no effect, 10 is complete control), Sugarbeets: 2
[10]; [22]
  Sugarbeets plant response rating: 3
[11]; [16]
  Velvetleaf plant response rating: 0
[11]; [17]
  Velvetleaf plant response rating: 0
[11]; [18]
  Plant response rating, Velvetleaf: 0
[11]; [19]
  Velvetleaf plant response rating: 2
[11]; [20]
  Velvetleaf plant response rating: 2
[11]; [21]
  Velvetleaf plant response rating: 0
[11]; Rate 250 g/ha, Postemergence
  Plant response rating (0 to 10; 0 is no effect, 10 is complete control), Velvetleaf: 2
[11]; [22]
  Velvetleaf plant response rating: 3
[12]; [16]
  Nutsedge plant response rating: 0
[12]; [19]
  Nutsedge plant response rating: 0
[12]; [20]
  Nutsedge plant response rating: 0
[12]; [21]
  Nutsedge plant response rating: 0
[12]; Rate 250 g/ha, Postemergence
  Plant response rating (0 to 10; 0 is no effect, 10 is complete control), Nutsedge: 0
[12]; [22]
  Nutsedge plant response rating: 0
[13]; [23]
  Rice plant response rating: 0
[13]; [24]
  Rice plant response rating: 0
[13]; [25]
  Rice plant response rating: 0
[13]; [26]
  Rice plant response rating: 0
[14]; [23]
  Ducksalad plant response rating: 0
[14]; [24]
  Ducksalad plant response rating: 0
[14]; [25]
  Ducksalad plant response rating: 0
[14]; [26]
  Ducksalad plant response rating: 0
[15]; [23]
  Barnyardgrass plant response rating: 0
[15]; [24]
  Barnyardgrass plant response rating: 0
[15]; [25]
  Barnyardgrass plant response rating: 0
[15]; [26]
  Barnyardgrass plant response rating: 0
